Counter-ions that a name gives are not always drawn.

This note sets out measurements from US20260053861A1, “CELL COMPOSITIONS AND METHODS OF USING THE SAME” (THE REGENTS OF THE UNIVERSITY OF CALIFORNIA, priority 2022, published 2026).

One assay deals with hPSC-SCs.
Conditions: not given
Consider `CC[C@H](CC[C@@H](C)[C@H]1CC[C@H]2[C@@H]3CC=C4C[C@@H](O)CC[C@]4(C)[C@H]3CC[C@]12C)C(C)C` [Beta-sistosterol], for which the z.score.t is recorded as 0.1543.

In the case of `CN1CCc2cc3c(cc2[C@H]1[C@@H]1OC(=O)c2c1ccc1c2OCO1)OCO3` [Bicuculline (+)], the z.score.t is 0.5437.

For `COc1cc2c(cc1O)C[C@H]1c3c(cc(O)c(OC)c3-2)CCN1C` [Boldine], the z.score.t was 0.767.

The compound `CCCCOC(=O)c1ccc(O)cc1` [Butylparaben] came in with a z.score.t of −0.2359.

In the case of `CN1CC[C@]23c4ccccc4N[C@H]1[C@]21CCN(C)[C@H]3Nc2ccccc21` [Calycanthine], the z.score.t is on record as 0.4849.

Compound `NC(N)=NOCC[C@H](N)C(=O)O.O.O=S(=O)(O)O` [Canavanine sulfate monohydrate (L, +)] yielded a z.score.t of 1.095.

In the case of `C[C@@]12C(=O)OC(=O)[C@]1(C)[C@H]1CC[C@@H]2O1` [Cantharidin], the z.score.t was −2.175.

With `CCCC(C)(COC(N)=O)COC(=O)NC(C)C` (stereo not shown) [Carisoprodol], the z.score.t is recorded as 0.425.

`CCC1=C[C@@H]2CN3CCc4c([nH]c5ccccc45)[C@@](C(=O)OC)(C2)[C@@H]13` [Catharanthine] returned a z.score.t of 0.2625.

Staying with this assay, now noted: HTS viability of hPSC-SCs in the presence of 30 mM glucose; Prestwick library; Table S4.
Consider `CCOC(=O)c1ccc(N)cc1` [Benzocaine], for which the z.score.t is listed as −0.8317.

With `CCCCNc1ccc(C(=O)OCCOCCOCCOCCOCCOCCOCCOCCOCCOC)cc1` [Benzonatate], the z.score.t turned out to be 0.6386.

Turning to `NS(=O)(=O)c1cc2c(cc1Cl)N=C(CSCc1ccccc1)NS2(=O)=O` [Benzthiazide], the z.score.t is listed as 0.3022.

As for `CN(C)CCCOc1nn(Cc2ccccc2)c2ccccc12` [Benzydamine hydrochloride], the z.score.t is −1.272.

`CC1(C)S[C@@H]2[C@H](NC(=O)Cc3ccccc3)C(=O)N2[C@H]1C(=O)O` [Benzylpenicillin sodium]: the z.score.t is recorded as −1.3.

In the case of `C[N+](C)(CCOc1ccccc1)Cc1ccccc1.O=C([O-])c1cc2ccccc2cc1O` [Bephenium hydroxynaphthoate], the z.score.t is 0.5158.

With `CC(C)COCC(CN(Cc1ccccc1)c1ccccc1)N1CCCC1` (stereo not shown) [Bepridil hydrochloride], the z.score.t is −0.5726.

As for `COc1ccc2cc3[n+](cc2c1OC)CCc1cc2c(cc1-3)OCO2` [Berberine chloride], the z.score.t came to 1.018.

As to `COc1c(O)cc2c(c1O)[C@@H]1O[C@H](CO)[C@@H](O)[C@H](O)[C@H]1OC2=O` [Bergenin monohydrate], the z.score.t is recorded as 1.238.

On to `CNCCc1ccccn1.CS(=O)(=O)O.CS(=O)(=O)O` [Betahistine mesylate], for which the z.score.t was −0.6301.

For `C[C@H]1C[C@H]2[C@@H]3CCC4=CC(=O)C=C[C@]4(C)[C@@]3(F)[C@@H](O)C[C@]2(C)[C@@]1(O)C(=O)CO` [Betamethasone], the z.score.t amounted to 0.8711.

For `CC(C)NCC(O)COc1ccc(CCOCC2CC2)cc1` (stereo not shown) [Betaxolol hydrochloride], the z.score.t was −0.5337.

As for `NCCc1cc[nH]n1` [Betazole hydrochloride], the z.score.t came out at 1.681.

As for `CC(C[N+](C)(C)C)OC(N)=O` (stereo not shown) [Bethanechol chloride], the z.score.t turned out to be 0.3236.

Regarding `C[N+]1(C)C[C@H](O)C[C@H]1C(=O)[O-]` [Betonicine], the z.score.t was 1.194.

For `C=C(C)[C@@H]1CC[C@]2(CO)CC[C@]3(C)[C@H](CC[C@@H]4[C@@]5(C)CC[C@H](O)C(C)(C)[C@@H]5CC[C@]43C)[C@@H]12` [Betulin], the z.score.t is on record as −1.025.

Turning to `C=C(C)[C@@H]1CC[C@]2(C(=O)O)CC[C@]3(C)[C@H](CC[C@@H]4[C@@]5(C)CC[C@H](O)C(C)(C)[C@@H]5CC[C@]43C)[C@@H]12` [Betulinic acid], the z.score.t is given as −1.832.

Consider `CC(C)(Oc1ccc(CCNC(=O)c2ccc(Cl)cc2)cc1)C(=O)O` [Bezafibrate], for which the z.score.t was 1.266.

Turning to `O=C(O)CCCC[C@@H]1SC[C@@H]2NC(=O)N[C@@H]21` [Biotin], the z.score.t was 0.2189.

Regarding `OC(CCN1CCCCC1)(c1ccccc1)C1CC2C=CC1C2` (stereo not shown) [Biperiden hydrochloride], the z.score.t is 0.04918.

Turning to `CC(=O)Oc1ccc(C(c2ccc(OC(C)=O)cc2)c2ccccn2)cc1` [Bisacodyl], the z.score.t is 0.4849.

In the case of `CC(C)NCC(O)COc1ccc(COCCOC(C)C)cc1` (stereo not shown) [Bisoprolol fumarate], the z.score.t is −0.1003.

In the case of `CC[N+](C)(C)Cc1ccccc1Br` [Bretylium tosylate], the z.score.t was −0.3895.

With `CCN[C@H]1CN(CCCOC)S(=O)(=O)c2sc(S(N)(=O)=O)cc21` [Brinzolamide], the z.score.t was 0.7491.

For the compound `CCN(CC)CCNC(=O)c1cc(Br)c(N)cc1OC` [Bromopride], the z.score.t is on record as −0.3895.

For `O=C(CCCN1CCC(O)(c2ccc(Br)cc2)CC1)c1ccc(F)cc1` [Bromperidol], the z.score.t worked out at 1.239.

As for `CN(C)CCC(c1ccc(Br)cc1)c1ccccn1` (stereo not shown) [Brompheniramine maleate], the z.score.t is listed as −0.8478.

Turning to `CCCC(=O)Nc1ncnc2c1ncn2[C@@H]1O[C@@H]2COP(=O)(O)O[C@H]2[C@H]1OC(=O)CCC` [Bucladesine sodium salt], the z.score.t turned out to be 0.7727.

Turning to `CCCC1O[C@@H]2C[C@H]3[C@@H]4CCC5=CC(=O)C=C[C@]5(C)[C@H]4[C@@H](O)C[C@]3(C)[C@]2(C(=O)CO)O1` (stereo partly shown) [Budesonide], the z.score.t was 1.74.

As for `CCCCOc1ccc(CC(=O)NO)cc1` [Bufexamac], the z.score.t is recorded as −0.6623.

For the compound `COc1cc(OC)c(C(=O)CCCN2CCCC2)c(OC)c1` [Buflomedil hydrochloride], the z.score.t is on record as 0.3641.

As for `CCCCNc1cc(C(=O)O)cc(S(N)(=O)=O)c1Oc1ccccc1` [Bumetanide], the z.score.t amounted to 1.181.

Consider `CCCCN1CCCCC1C(=O)Nc1c(C)cccc1C` (stereo not shown) [Bupivacaine hydrochloride], for which the z.score.t is on record as −0.3156.

On to `CC(NC(C)(C)C)C(=O)c1cccc(Cl)c1` (stereo not shown) [Bupropion hydrochloride], for which the z.score.t was 2.803.

Take `CCCCN(CCCC)CCCOC(=O)c1ccc(N)cc1` [Butacaine]: the z.score.t is −0.3023.

As for `CCCCOC(=O)c1ccc(N)cc1` [Butamben], the z.score.t was found to be 0.8465.

In the case of `Clc1ccc(CCC(Cn2ccnc2)Sc2c(Cl)cccc2Cl)cc1` (stereo not shown) [Butoconazole nitrate], the z.score.t is −1.151.

With `O=C(O)/C=C/c1ccc(O)c(O)c1` [Caffeic acid], the z.score.t is 0.9865.

`C=C1CC[C@H](O)C/C1=C/C=C1\CCC[C@]2(C)[C@@H]([C@H](C)/C=C/[C@H](C)C(C)C)CC[C@@H]12` [Calciferol]: the z.score.t was 0.4451.

As for `CC[C@@]1(O)C(=O)OCc2c1cc1n(c2=O)Cc2cc3ccccc3nc2-1` [Camptothecine (S, +)], the z.score.t was −1.163.

For `C[C@]12CCC(=O)C=C1C=C[C@@H]1[C@@H]2CC[C@@]2(C)[C@H]1CC[C@@]2(O)CCC(=O)O` [Canrenoic acid potassium salt], the z.score.t is 0.05523.

Take `COc1cc(CNC(=O)CCCC/C=C/C(C)C)ccc1O` [Capsaicin]: the z.score.t is given as 0.03421.

With `C[C@H](CS)C(=O)N1CCC[C@H]1C(=O)O` [Captopril], the z.score.t was determined as 2.207.

For the compound `C[N+](C)(C)CCOC(N)=O` [Carbachol], the z.score.t was −0.1239.

For `NC(=O)N1c2ccccc2C=Cc2ccccc21` [Carbamazepine], the z.score.t is on record as 0.8158.

Take `CC1(C)[C@@H](OC(=O)CCC(=O)O)CC[C@]2(C)[C@H]3C(=O)C=C4[C@@H]5C[C@@](C)(C(=O)O)CC[C@]5(C)CC[C@@]4(C)[C@]3(C)CC[C@@H]12` [Carbenoxolone disodium salt]: the z.score.t is recorded as 1.163.

`CCN(CC)CCOCCOC(=O)C1(c2ccccc2)CCCC1` [Carbetapentane citrate]: the z.score.t worked out at 0.3024.

As for `CCOC(=O)n1ccn(C)c1=S` [Carbimazole], the z.score.t is given as −0.2276.

As for `NCCC(=O)NCCc1c[nH]cn1` [Carcinine], the z.score.t was 0.8711.

Turning to `CC(C)(C)NCC(O)COc1cccc2c1CCC(=O)N2` (stereo not shown) [Carteolol hydrochloride], the z.score.t is reported as 1.266.

For the compound `N[C@@H](C(=O)N[C@@H]1C(=O)N2C(C(=O)O)=C(Cl)CS[C@H]12)c1ccccc1` [Cefaclor], the z.score.t was −0.7233.

On to `CC1=C(C(=O)O)N2C(=O)[C@@H](NC(=O)[C@H](N)c3ccc(O)cc3)[C@H]2SC1` [Cefadroxil], for which the z.score.t was found to be 0.5046.

For the compound `NC(=O)c1cc[n+](CC2=C(C(=O)[O-])N3C(=O)[C@@H](NC(=O)Cc4cccs4)[C@H]3SC2)cc1` [Cefalonium], the z.score.t was −0.3867.

As for `Cn1nnnc1SCC1=C(C(=O)O)N2C(=O)[C@@H](NC(=O)[C@H](O)c3ccccc3)[C@H]2SC1` [Cefamandole sodium salt], the z.score.t is −0.7376.

Regarding `Cc1nnc(SCC2=C(C(=O)O)N3C(=O)[C@@H](NC(=O)Cn4cnnn4)[C@H]3SC2)s1` [Cefazolin sodium salt], the z.score.t is recorded as −0.6194.

Regarding `CO/N=C(\C(=O)N[C@@H]1C(=O)N2C(C(=O)O)=C(C[N+]3(C)CCCC3)CS[C@H]12)c1csc(N)n1` [Cefepime hydrochloride], the z.score.t is given as −0.9926.

Turning to `C=CC1=C(C(=O)O)N2C(=O)[C@@H](NC(=O)/C(=N\OCC(=O)O)c3csc(N)n3)[C@H]2SC1` [Cefixime], the z.score.t is listed as 0.5046.

Consider `CO[C@@]1(NC(=O)CSCC#N)C(=O)N2C(C(=O)O)=C(CSc3nnnn3C)CS[C@@H]21` [Cefmetazole sodium salt], for which the z.score.t came out at 0.1916.

As for `CCN1CCN(C(=O)N[C@@H](C(=O)N[C@@H]2C(=O)N3C(C(=O)O)=C(CSc4nnnn4C)CS[C@H]23)c2ccc(O)cc2)C(=O)C1=O` [Cefoperazone dihydrate], the z.score.t is on record as −0.7233.

Consider `NCc1ccccc1CC(=O)N[C@@H]1C(=O)N2C(C(=O)O)=C(CSc3nnnn3CC(=O)O)CS[C@H]12` [Ceforanide], for which the z.score.t is −0.5532.

Take `CO/N=C(\C(=O)N[C@@H]1C(=O)N2C(C(=O)O)=C(COC(C)=O)CS[C@H]12)c1csc(N)n1` [Cefotaxime sodium salt]: the z.score.t is reported as 1.931.
